Laboratory results reported in article PMC10907560, “Significant reduction of activity retention in the kidneys via optimized linker sequences in radiohybrid-based minigastrin analogs” (EJNMMI Research, 2024).
Where “and” joins values, the source holds several entries; their conditions need not be identical. Identical values can stand only once. Numbered stars: 1 amine (or outer) side, 2 acyl side, 3 side chain; on linkers, the order of the positions; unused ones are H or OH. Square brackets hold non-standard residues; d marks the D form. Peptide text beside a SMILES is read from it. * marks the point of attachment. Benzoyl(4-SiFtBu2) = CC(C)(C)[Si](F)(c1ccc(C(=O)*)cc1)C(C)(C)C; DOTA = O=C(O)CN1CCN(CC(=O)O)CCN(CC(=O)*)CCN(CC(=O)O)CC1; PEG12 = NCCOCCOCCOCCOCCOCCOCCOCCOCCOCCOCCOCCOCCC(=O)O; d(γGlu) = O=C(O)[C@@H](CCC(=O)[*:2])N[*:1]; PEG8 = NCCOCCOCCOCCOCCOCCOCCOCCOCCC(=O)O; 1Nal = N[C@@H](Cc1cccc2ccccc12)C(=O)O; PEG5 = NCCOCCOCCOCCOCCOCCC(=O)O; NMeNle = CCCC[C@H](NC)C(=O)O; PEG4 = NCCOCCOCCOCCOCCC(=O)O; dDap = NC[C@@H](N)C(=O)O

Columns and labels:
[1] = biological target: T1, Human serum albumin (HSA) (Homo sapiens, UniProt P02768); test: Human serum albumin binding via high performance affinity chromatography (HPAC); assay type: in vitro ADME; settings: Chiralpak HSA column
T1 construct: purchased Daicel, Tokyo, Japan H13H-2433
T1 sequence (P02768 25-609): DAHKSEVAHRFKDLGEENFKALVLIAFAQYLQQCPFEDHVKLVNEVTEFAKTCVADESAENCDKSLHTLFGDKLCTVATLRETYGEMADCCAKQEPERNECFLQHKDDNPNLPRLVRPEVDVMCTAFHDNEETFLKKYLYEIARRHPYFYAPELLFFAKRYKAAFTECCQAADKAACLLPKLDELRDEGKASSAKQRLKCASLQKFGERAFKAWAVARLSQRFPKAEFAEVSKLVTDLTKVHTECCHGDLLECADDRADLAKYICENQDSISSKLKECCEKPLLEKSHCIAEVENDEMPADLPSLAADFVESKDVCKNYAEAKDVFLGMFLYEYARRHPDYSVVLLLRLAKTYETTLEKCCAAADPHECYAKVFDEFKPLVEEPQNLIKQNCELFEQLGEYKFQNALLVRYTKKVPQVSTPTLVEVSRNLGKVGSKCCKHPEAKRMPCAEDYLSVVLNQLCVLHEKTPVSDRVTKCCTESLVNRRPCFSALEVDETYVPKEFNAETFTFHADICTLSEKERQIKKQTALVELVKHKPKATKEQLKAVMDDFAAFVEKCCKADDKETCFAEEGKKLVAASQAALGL
Experimental: Human serum albumin (HSA) binding was determined via high performance affinity chromatography (HPAC), according to previously published protocols. Human serum albumin interaction was calculated according to the retention time (n = 1) of our compounds on a Chiralpak HSA column in dependence of nine reference compounds with known HSA interaction.
Human serum albumin binding was determined via high performance affinity chromatography. Therefore, a Chiralpak HSA column (50 × 3 mm, 5 µm, H13H-2433, Daicel, Tokyo, Japan) was used at a constant flow rate of 0.5 ml/min at room temperature. Mobile phase A consisted of a freshly prepared aqueous solution of NH4OAc (pH = 6.9, 50 mM) and mobile phase B of isopropanol. Calibration of the column was performed daily prior to experiments, by determining the retention times of nine reference substances displaying a HSA binding from 13 to 99%. HPLC gradient for all compounds tested was 100% A (0 to 3 min), followed by 80% A (3 to 40 min). All substances tested, were dissolved in a mixture of A/B (0.5 mg/mL, 1:1, v/v). OriginPro 2016G software (Northampton, United States) was used for non-linear regression and data evaluation.

[2] = system: AR42J tumor-bearing CB17-SCID mice; settings: 24 h p.i.; cited from earlier work
[3] = Lipophilicity, n-octanol/PBS distribution coefficient logD7.4; assay type: physicochemical; settings: 177Lu-labeled peptide; n-octanol/PBS (1/1), n ≥ 5
Experimental: For determination of lipophilicity, the respective ^177Lu-Labeled peptide precursor (~ 1 MBq, 10 µL in 0.04 M HCl) was added to a solution of n-octanol/PBS (1/1, v/v, 1 mL) and vigourously mixed for 3 min at room temperature (n ≥ 5). Afterwards both phases were seperated using a Biofuge 15 centrifuge (Heraus Sepatech GmbH, Osterode, Germany) at 9,000 rpm for 5 min. 200 µL aliquots of both layers were collected separately, measured in a γ-counter (Perkin Elmer, Waltham, MA, USA) and the logD7.4 value was obtained.

Row | Compound | HSA binding ([1]; n = 1) [%] | logD [3] | also measured
1 | CCCC[C@H](NC(=O)[C@H](Cc1c[nH]c2ccccc12)NC(=O)CNC(=O)[C@H](Cc1ccc(O)cc1)NC(=O)[C@H](C)NC(=O)CC[C@@H](NC(=O)CC[C@@H](NC(=O)CC[C@@H](NC(=O)CC[C@@H](NC(=O)CC[C@@H](NC(=O)CC[C@@H](NC(=O)CC[C@@H](NC(=O)CC[C@@H](NC(=O)[C@@H](CNC(=O)c1ccc([Si](F)(C(C)(C)C)C(C)(C)C)cc1)NC(=O)CN1CCN(CC(=O)O)CCN(CC(=O)O)CCN(CC(=O)O)CC1)C(=O)O)C(=O)O)C(=O)O)C(=O)O)C(=O)O)C(=O)O)C(=O)O)C(=O)O)C(=O)N[C@@H](CC(=O)O)C(=O)N[C@@H](Cc1ccccc1)C(N)=O [[^177Lu]Lu-DOTA-rhCCK-18, DOTA-D-Dap(p-SiFA)-(D-γ-Glu)8-Ala-Tyr-Gly-Trp-Nle-Asp-Phe-NH2, metal not drawn] | – | – | HSA binding ([1]; n = 1, listed as [^natLu]Lu-DOTA-rhCCK-18): 87.1% and 87%; activity levels in the bone [2]: 0.20 ± 0.03 %ID/g; activity levels in the liver [2]: 0.22 ± 0.01 %ID/g; activity levels in the spleen [2]: 0.34 ± 0.09 %ID/g; activity levels in the stomach [2]: 4.3 ± 1.1 %ID/g; activity levels in the tumor [2]: 25.4 ± 4.7 %ID/g; activity uptake in the kidneys [2]: 134 ± 18 %ID/g; tumor-to-kidney ratio [2]: 0.19 ± 0.01
2 | CCCC[C@@H](C(=O)N[C@@H](CC(=O)O)C(=O)N[C@@H](Cc1cccc2ccccc12)C(N)=O)N(C)C(=O)[C@H](Cc1c[nH]c2ccccc12)NC(=O)CCOCCOCCOCCOCCNC(=O)CC[C@@H](NC(=O)CCOCCOCCOCCOCCOCCOCCOCCOCCOCCOCCOCCOCCNC(=O)CC[C@@H](NC(=O)[C@@H](CNC(=O)C[N+](C)(C)Cc1ccc([Si](F)(C(C)(C)C)C(C)(C)C)cc1)NC(=O)CN1CCN(CC(=O)O)CCN(CC(=O)O)CCN(CC(=O)O)CC1)C(=O)O)C(=O)O [[^nat/177Lu]Lu-DOTA-rhCCK-75, DOTA-D-Dap(SiFAlin)-D-γ-Glu-(PEG)11-B, metal not drawn] | 90.9 | -1.15 ± 0.05 | –
3 | CCCC[C@@H](C(=O)N[C@@H](CC(=O)O)C(=O)N[C@@H](Cc1cccc2ccccc12)C(N)=O)N(C)C(=O)[C@H](Cc1c[nH]c2ccccc12)NC(=O)CCOCCOCCOCCOCCNC(=O)CC[C@@H](NC(=O)CCOCCOCCOCCOCCOCCNC(=O)CC[C@@H](NC(=O)[C@@H](CNC(=O)c1ccc([Si](F)(C(C)(C)C)C(C)(C)C)cc1)NC(=O)CN1CCN(CC(=O)O)CCN(CC(=O)O)CCN(CC(=O)O)CC1)C(=O)O)C(=O)O [[^nat/177Lu]Lu-DOTA-rhCCK-68, DOTA-D-Dap(p-SiFA)-D-γ-Glu-(PEG)4-B, metal not drawn] | 91.2 | -1.65 ± 0.09 | –
4 | CCCC[C@@H](C(=O)N[C@@H](CC(=O)O)C(=O)N[C@@H](Cc1cccc2ccccc12)C(N)=O)N(C)C(=O)[C@H](Cc1c[nH]c2ccccc12)NC(=O)CCOCCOCCOCCOCCNC(=O)CC[C@@H](NC(=O)CCOCCOCCOCCOCCOCCOCCOCCOCCNC(=O)CC[C@@H](NC(=O)[C@@H](CNC(=O)c1cc(C(=O)O)cc([Si](F)(C(C)(C)C)C(C)(C)C)c1)NC(=O)CN1CCN(CC(=O)O)CCN(CC(=O)O)CCN(CC(=O)O)CC1)C(=O)O)C(=O)O [[^nat/177Lu]Lu-DOTA-rhCCK-72, DOTA-D-Dap(SiFA-ipa)-D-γ-Glu-(PEG)7-B, metal not drawn] | 89.3 | -2.32 ± 0.03 | –
5 | DOTA-D-Glu-Ala-Tyr-Gly-Trp-(N-Me)Nle-Asp-1-Nal-NH2 [[^177Lu]Lu-DOTA-MGS5] | – | – | activity levels in the tumor [2]: 11.0 ± 1.2 %ID/g; kidney retention [2]: 1.3 ± 0.4 %ID/g; tumor-to-kidney ratio [2]: 9.4 ± 3.3; tumor-to-stomach ratio [2]: 4.4 ± 0.7
6 | CCCC[C@@H](C(=O)N[C@@H](CC(=O)O)C(=O)N[C@@H](Cc1cccc2ccccc12)C(N)=O)N(C)C(=O)[C@H](Cc1c[nH]c2ccccc12)NC(=O)CCOCCOCCOCCOCCNC(=O)CC[C@@H](NC(=O)CCOCCOCCOCCOCCOCCOCCOCCOCCOCCOCCOCCOCCNC(=O)CC[C@@H](NC(=O)[C@@H](CNC(=O)c1ccc([Si](F)(C(C)(C)C)C(C)(C)C)cc1)NC(=O)CN1CCN(CC(=O)O)CCN(CC(=O)O)CCN(CC(=O)O)CC1)C(=O)O)C(=O)O [[^nat/177Lu]Lu-DOTA-rhCCK-76, DOTA-D-Dap(p-SiFA)-D-γ-Glu-(PEG)11-B, metal not drawn] | 86.2 | -1.82 ± 0.09 | –
7 | DOTA-(D-Glu)6-Ala-Tyr-Gly-Trp-Nle-Asp-Phe-NH2 [[^177Lu]Lu-DOTA-PP-F11N] | – | – | activity levels in the tumor [2]: 1.9 ± 0.8 %ID/g; kidney retention [2]: 3.1 ± 0.6 %ID/g
8 | CCCC[C@@H](C(=O)N[C@@H](CC(=O)O)C(=O)N[C@@H](Cc1cccc2ccccc12)C(N)=O)N(C)C(=O)[C@H](Cc1c[nH]c2ccccc12)NC(=O)CCOCCOCCOCCOCCNC(=O)CC[C@@H](NC(=O)CCOCCOCCOCCOCCOCCOCCOCCOCCNC(=O)CC[C@@H](NC(=O)[C@@H](CNC(=O)C[N+](C)(C)Cc1ccc([Si](F)(C(C)(C)C)C(C)(C)C)cc1)NC(=O)CN1CCN(CC(=O)O)CCN(CC(=O)O)CCN(CC(=O)O)CC1)C(=O)O)C(=O)O [[^nat/177Lu]Lu-DOTA-rhCCK-71, DOTA-D-Dap(SiFAlin)-D-γ-Glu-(PEG)7-B, metal not drawn] | 89.1 | -1.63 ± 0.06 | –
9 | CCCC[C@@H](C(=O)N[C@@H](CC(=O)O)C(=O)N[C@@H](Cc1cccc2ccccc12)C(N)=O)N(C)C(=O)[C@H](Cc1c[nH]c2ccccc12)NC(=O)CCOCCOCCOCCOCCNC(=O)CC[C@@H](NC(=O)CCOCCOCCOCCOCCOCCNC(=O)[C@@H](CNC(=O)c1ccc([Si](F)(C(C)(C)C)C(C)(C)C)cc1)NC(=O)CN1CCN(CC(=O)O)CCN(CC(=O)O)CCN(CC(=O)O)CC1)C(=O)O [[^nat/177Lu]Lu-DOTA-rhCCK-67, DOTA-D-Dap(p-SiFA)-(PEG)4-B, metal not drawn] ({DOTA}-[dDap](Benzoyl(4-SiFtBu2))[PEG5][d(γGlu)][PEG4]W[NMeNle]D[1Nal]-NH2) | 92.9 | -1.05 ± 0.09 | –
10 | CCCC[C@@H](C(=O)N[C@@H](CC(=O)O)C(=O)N[C@@H](Cc1cccc2ccccc12)C(N)=O)N(C)C(=O)[C@H](Cc1c[nH]c2ccccc12)NC(=O)CCOCCOCCOCCOCCNC(=O)CC[C@@H](NC(=O)CCOCCOCCOCCOCCOCCOCCOCCOCCOCCOCCOCCOCCNC(=O)[C@@H](CNC(=O)c1ccc([Si](F)(C(C)(C)C)C(C)(C)C)cc1)NC(=O)CN1CCN(CC(=O)O)CCN(CC(=O)O)CCN(CC(=O)O)CC1)C(=O)O [[^nat/177Lu]Lu-DOTA-rhCCK-74, DOTA-D-Dap(p-SiFA)-(PEG)11-B, metal not drawn] ({DOTA}-[dDap](Benzoyl(4-SiFtBu2))[PEG12][d(γGlu)][PEG4]W[NMeNle]D[1Nal]-NH2) | 87.2 | -1.19 ± 0.07 | –
11 | CCCC[C@@H](C(=O)N[C@@H](CC(=O)O)C(=O)N[C@@H](Cc1cccc2ccccc12)C(N)=O)N(C)C(=O)[C@H](Cc1c[nH]c2ccccc12)NC(=O)CCOCCOCCOCCOCCNC(=O)CC[C@@H](NC(=O)CCOCCOCCOCCOCCOCCOCCOCCOCCNC(=O)[C@@H](CNC(=O)c1ccc([Si](F)(C(C)(C)C)C(C)(C)C)cc1)NC(=O)CN1CCN(CC(=O)O)CCN(CC(=O)O)CCN(CC(=O)O)CC1)C(=O)O [[^nat/177Lu]Lu-DOTA-rhCCK-73, DOTA-D-Dap(p-SiFA)-(PEG)7-B, metal not drawn] ({DOTA}-[dDap](Benzoyl(4-SiFtBu2))[PEG8][d(γGlu)][PEG4]W[NMeNle]D[1Nal]-NH2) | 90.4 | -1.02 ± 0.06 | –
